Consider 2 compounds from patent US7989466B2, “Methods to inhibit or augment an inflammatory response” (Cambridge Enterprise Limited, priority 1999, dated 2011).

Assay [1] relates to RANTES induced THP-1 migration. Kind of assay: THP-1 trans-well migration assay, RANTES as chemoattractant. Type of assay: cell-based, human. The settings on record: Homo sapiens, THP-1; read-out: ED50, RANTES chemotaxis assay. Here is the method:
To determine whether an agent inhibits a chemokine-induced activity, such as macrophage recruitment, varying amounts of the agent are mixed with cells in the presence of a known chemoattractant. For example, a range of known concentrations of an agent, e.g., a chemokine peptide, is incubated with a defined number (e.g., 10^4-10^6) of human THP-1 monocyte cells in individual wells of the top compartment of a trans-well plate. Chemokine (such as MCP-1, MIP1α, IL8 or SDF-1α), at a concentration known to cause significant migration of THP-1 cells in the trans-well migration assay, is placed in the lower compartment (FIG. 1). […] A standard curve consisting of a two-fold dilution series of THP-1 cells (in 29 μl) is prepared to accurately quantify the number of cells that have migrated. […] Absorbance of converted dye is measured at a wavelength of 595 nm using an ELISA plate reader. The number of migrated cells in each well is then determined by interpolation of the standard curve (see also Imai et al., J. Biol. Chem., 272, 15036 (1997)). […]
After incubation, the cells were gently removed from the top of the filter with a pipette, 20 μl of 20 mM EDTA in PBS was added into each top well, and the mixture was incubated for 20 minutes at 4° C. […] A standard curve was prepared to accurately quantify the number of THP-1 cells that had migrated. […]

For the next assay, the target named is T1, 5-HT1a receptors (Homo sapiens, UniProt P08908).
T1 construct: purchased RBI/Sigma S-160
T1 sequence (P08908 whole entry): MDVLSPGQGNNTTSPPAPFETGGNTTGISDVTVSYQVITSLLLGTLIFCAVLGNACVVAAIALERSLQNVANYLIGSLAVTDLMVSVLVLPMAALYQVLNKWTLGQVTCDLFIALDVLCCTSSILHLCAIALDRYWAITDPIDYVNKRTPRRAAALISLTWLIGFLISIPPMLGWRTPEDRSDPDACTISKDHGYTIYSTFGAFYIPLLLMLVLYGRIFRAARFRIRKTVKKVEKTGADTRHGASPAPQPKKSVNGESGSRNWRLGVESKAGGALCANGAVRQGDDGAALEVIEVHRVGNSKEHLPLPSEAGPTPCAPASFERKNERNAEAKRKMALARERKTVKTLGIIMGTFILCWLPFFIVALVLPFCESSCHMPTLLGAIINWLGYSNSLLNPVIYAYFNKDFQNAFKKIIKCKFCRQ
Kind of assay: 5HT1a serotonin receptor membrane binding (3H-8-OH-DPAT). Here is the method: For 5HT1a serotonin receptors, membranes (S-160, RBI/Sigma) are diluted into binding buffer (50 mM Tris pH 7.4 10 mM MgCl2 and 0.5 mM EDTA, with ascorbate at 1 mg/ml added immediately before use), e.g., 10 μl of membranes in 500 μl assay volume (i.e., 1:50 dilution). Cold competitor or test competitor is then added, e.g., 5 μl of 100× stock solution such as 5 μl of 1 mM oxymetazoline. […] The tubes are vortexed then spun briefly. The mixtures are incubated for 1 hour at 4° C. The mixtures are filtered through GF/C filters pre-soaked in polyethyleneimine (0.3% in MilliQ water). The tubes are washed with 2-3 ml of wash buffer and filtered. The filter is washed with 3×5 ml of wash buffer, and air dried. 4.5 ml of scintillant is added to the dried filter in a scintillation vial and the filter counted on a tritium channel.

Another assay concerns the target CCR-2 (Homo sapiens, UniProt P41597). Kind of assay: Competitive binding to CCR-2 on CHO cells. Particulars: read-out: ED50, Binding to CCR-2. Here is the method: A competitive binding assay was used to determine the binding of A-I to chemokine receptors. These experiments were performed under ‘Horuk’ conditions (Hesselgesser et al., J. Biol. Chem., 273, 15687 (1998)), except that CHO cells expressing CCR-2 or CXCR-2 (AIDS Reagent Program, MRC London) were used. In each case, the specific binding of 0.25 nM labeled ligand to the cells was determined as the counts bound which were competable by 100 nM cold ligand. In each experiment, A-I was added from a stock solution in DMSO (with <0.1% DMSO final concentration in the assay).

In the next assay the test system is B cells. Type of assay: cell-based.

pEC50: −log10 of the molar value. Positions of bridges follow the written chain, without caps; N, C: chain ends. Non-standard residues stand in square brackets, D forms with d. Residues, ends and D or L forms follow the SMILES beside them.

Sequence of CCR-2 (P41597 1-313 limits assumed): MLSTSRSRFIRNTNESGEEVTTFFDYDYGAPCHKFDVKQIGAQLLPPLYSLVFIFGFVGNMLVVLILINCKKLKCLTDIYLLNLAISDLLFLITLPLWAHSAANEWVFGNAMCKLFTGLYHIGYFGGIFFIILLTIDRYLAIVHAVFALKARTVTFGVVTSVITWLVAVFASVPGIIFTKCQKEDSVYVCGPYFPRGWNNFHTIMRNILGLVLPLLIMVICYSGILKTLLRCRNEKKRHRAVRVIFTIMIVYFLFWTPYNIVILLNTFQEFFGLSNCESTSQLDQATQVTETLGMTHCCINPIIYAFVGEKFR

With `C=CCCCCCCCCC(=O)N[C@H]1CCC(=O)NC1=O` [A-I (NR58.4), [3S]-3-(undec-10-enoylamino)piperidine-2,6-dione], the pEC50 in assay [1] is 9.52; at 5-HT1a receptors (100 μM highest concentration tested) it was 4.10; on CCR-2, 8.30. The “selectivity for MCP-1 inhibition over serotonin receptor binding” value on 5-HT1a receptors is given as “approximately 40,000 fold”.
For `CC[C@@H](C)[C@H]1NC(=O)[C@@H](CCC(N)=O)NC(=O)[C@H](N)CSSC[C@H](C(N)=O)NC(=O)[C@@H](CC(C)C)NC(=O)[C@@H](CC(=O)O)NC(=O)[C@H]2CCCN2C(=O)[C@@H](CCCCN)NC(=O)[C@@H](CCC(N)=O)NC(=O)[C@@H](CCCCN)NC(=O)[C@@H](Cc2c[nH]c3ccccc23)NC1=O` (H-[dC][dQ][dI][dW][dK][dQ][dK][dP][dD][dL][dC]-NH2; disulfide 1-11; N-terminus assumed), in the assay on B cells, the “effect on proliferation of B cells to tetanus toxoid” value is “no effect”.
